Data set [1] concerns Klebsiella pneumoniae ATCC 13833. The experiment in a line: MAC determination in the presence of subinhibitory colistin. The data set is classed as cell-based. The arrangement: key to MAC Kpn: -: No synergistic activity. The following applies: for MAC Kpn: in the presence of 0.5 × MIC colistin; for MIC/MAC Ratio Kpn: minimal ratio of MIC of compound alone to MAC with 0.5 × MIC colistin. On the procedure:
(§1) The minimum inhibitory concentration (MIC) and minimum bactericidal concentration (MBC) of the compounds were determined in triplicate using Mueller–Hinton broth and a bacterial inoculum of 5 × 10^5 CFU/mL, as recommended by the CLSI [26]. The minimum antibacterial concentration (MAC) of the compounds was determined in the presence of a fixed and subinhibitory concentration of colistin (as mentioned above).

The subject of data set [2] is Acinetobacter baumannii ATCC 17978. Described as above. The data set is classed as cell-based. The arrangement: key to MAC Aba: -: No synergistic activity. The following applies: for MAC Aba: in the presence of 0.5 × MIC colistin; for MIC/MAC Ratio Aba: minimal ratio of MIC of compound alone to MAC with 0.5 × MIC colistin. On the procedure:
as §1

Data set [3] relates to Escherichia coli CCUG^T. Described as above. The data set is classed as cell-based. The arrangement: key to MAC Eco: -: No synergistic activity. The following applies: for MAC Eco: in the presence of 0.5 × MIC colistin; for MIC/MAC Ratio Eco: minimal ratio of MIC of compound alone to MAC with 0.5 × MIC colistin. The method, then: as §1

Regarding `Cc1c(C(=O)NCc2ccc(F)cc2)nn(-c2ccc(Cl)c(Cl)c2)c1-n1cccc1`, the melting point lay in the range of 148 to 151 °C.

`Cc1c(C(=O)N[C@@H](Cc2ccccc2)C(=O)OC(C)(C)C)nn(-c2c(Cl)cc(Cl)cc2Cl)c1-n1c(C)ccc1C` [Compound 39, tert-Butyl (S)-3-Phenyl-2-[[[4-methyl-1-(2,4,6-trichlorophenyl)-5-(2,5-dimethyl-1H-pyrrol-1-yl)-1H-pyrazol-3-yl]carbonyl]amino]propanoate] displayed a melting point of 72 to 81 °C. In addition, the “MAC Kpn” value in data set [1] is “-”. Also, in data set [2], the “MAC Aba” value is given as 32 µg/mL and the “MIC/MAC Ratio Aba” value came out at 16. In addition, the “MAC Eco” value in data set [3] is given as “-”.

As to `COC(=O)c1cccc(NC(=O)c2nn(-c3ccc(Cl)cc3)c(-n3cccc3)c2C)c1` [Compound 41, Methyl 3-[[[1-(4-Chlorophenyl)-4-methyl-5-(1H-pyrrol-1-yl)-1H-pyrazol-3-yl]carbonyl]amino]benzoate], the melting point was in the range of 158 to 160 °C.

On to `Cc1c(C(=O)N(C)Cc2ccccc2)nn(-c2ccc(Cl)cc2)c1-n1cccc1` [Compound 34, N-Benzyl-1-(4-chlorophenyl)-N,4-dimethyl-5-(1H-pyrrol-1-yl)-1H-pyrazole-3-carboxamide], for which the melting point lay within 104 to 108 °C.

Regarding `CN1CCN(C(=O)c2cnn(-c3ccccc3)c2-n2cccc2)CC1` [Compound 4, (4-Methylpiperazin-1-yl)[1-phenyl-5-(1H-pyrrol-1-yl)-1H-pyrazol-4-yl]methanone], the melting point is 156 to 158 °C.

`CCOC(=O)[C@@H](NC(=O)c1cnn(-c2ccccc2)c1-n1cccc1)C(C)C` [Compound 13, Ethyl (S)-3-Methyl-2-[[[1-phenyl-5-(1H-pyrrol-1-yl)-1H-pyrazol-4-yl]carbonyl]amino]butanoate] yielded a melting point of 75 to 78 °C. In addition, in data set [1], the “MAC Kpn” value is 32 µg/mL and the “MIC/MAC Ratio Kpn” value came to 16. Moreover, the “MAC Aba” value in data set [2] is “-”. In data set [3], the “MAC Eco” value is recorded as 64 µg/mL and the “MIC/MAC Ratio Eco” value was 8.

For `CCOC(=O)N1CCN(C(=O)c2nn(-c3ccccc3)c(-n3cccc3)c2C)CC1` [Compound 26, (4-Ethoxycarbonylpiperazin-1-yl)[4-methyl-1-phenyl-5-(1H-pyrrol-1-yl)-1H-pyrazol-3-yl]methanone], the melting point was 130 to 131 °C.

For the molecule `O=C(Nc1ccc(Cl)cc1)c1cnn(-c2ccccc2)c1-n1cccc1` [Compound 6, N-(4-Chlorophenyl)-1-phenyl-5-(1H-pyrrol-1-yl)-1H-pyrazole-4-carboxamide], the melting point fell in the range of 197 to 198 °C.

As for `Cc1c(C(=O)N2CCOCC2)nn(-c2ccc(Cl)cc2)c1-n1cccc1` [Compound 30, [1-(4-Chlorophenyl)-4-methyl-5-(1H-pyrrol-1-yl)-1H-pyrazol-3-yl](morpholin-4-yl)methanone], the melting point fell in the range of 174 to 177 °C.

For the molecule `COC(=O)CNC(=O)c1cnn(-c2ccccc2)c1-n1cccc1` [Compound 11, Methyl [[[1-Phenyl-5-(1H-pyrrol-1-yl)-1H-pyrazol-4-yl]carbonyl]amino]acetate], the melting point lay within 139 to 141 °C.

For the molecule `CSc1ccc(NC(=O)c2nn(-c3ccc(Cl)cc3)c(-n3cccc3)c2C)cc1` [Compound 48, 1-(4-Chlorophenyl)-N-(4-methylthiophenyl)-4-methyl-5-(1H-pyrrol-1-yl)-1H-pyrazole-3-carboxamide], the melting point lay within 102 to 105 °C.

Take `Cc1c(C(=O)Nc2ccc(S(N)(=O)=O)cc2)nn(-c2ccc(Cl)cc2)c1-n1cccc1` [Compound 46, 1-(4-Chlorophenyl)-4-methyl-5-(1H-pyrrol-1-yl)-N-(4-sulfamoylphenyl)-1H-pyrazole-3-carboxamide]: the melting point lay in the range of 238 to 239 °C.

`CC(C)(C)OC(=O)Nc1c(C(=O)NCc2ccc(Br)cc2)cnn1-c1ccc([N+](=O)[O-])cc1` [Compound 21, N-(4-Bromobenzyl)-5-(tert-butoxycarbonylamino)-1-(4-nitrophenyl)-1H-pyrazole-4-carboxamide] came in with a melting point of 169 to 171 °C.

`CC(C)(C)OC(=O)[C@H](Cc1ccccc1)NC(=O)c1nn(-c2ccccc2)c(-n2cccc2)c1C#N` [Compound 25, tert-Butyl (S)-3-Phenyl-2-[[[4-cyano-1-phenyl-5-(1H-pyrrol-1-yl)-1H-pyrazol-3-yl]carbonyl]amino]propanoate]: the melting point lay in the range of 93 to 94 °C.

In turn, `COC(=O)c1ccccc1NC(=O)c1nn(-c2ccc(Cl)cc2)c(-n2cccc2)c1C` [Compound 43, Methyl 2-[[[1-(4-Chlorophenyl)-4-methyl-5-(1H-pyrrol-1-yl)-1H-pyrazol-3-yl]carbonyl]amino]benzoate] showed a melting point of 217 to 219 °C.

In the case of `O=C(c1cnn(-c2ccccc2)c1-n1cccc1)N1CCN(c2ncccn2)CC1` [Compound 7, [1-Phenyl-5-(1H-pyrrol-1-yl)-1H-pyrazol-4-yl][4-(pyrimidin-2-yl)piperazin-1-yl]methanone], the melting point lay in the range of 218 to 219 °C.

In the case of `Cc1c(C(=O)NCc2ccncc2)nn(-c2ccc(Cl)cc2)c1-n1cccc1` [Compound 33, 1-(4-Chlorophenyl)-4-methyl-N-(pyridin-4-ylmethyl)-5-(1H-pyrrol-1-yl)-1H-pyrazole-3-carboxamide], the melting point fell in the range of 189 to 193 °C.

For the molecule `O=C(NN1CCCCC1)c1cnn(-c2ccccc2)c1-n1cccc1` [Compound 5, 1-Phenyl-N-(piperidin-1-yl)-5-(1H-pyrrol-1-yl)-1H-pyrazole-4-carboxamide], the melting point was in the range of 165 to 167 °C.

Molecule `CC(C)(C)OC(=O)Nc1c(C(=O)NCc2ccc(Br)cc2)cnn1-c1ccccc1` [Compound 20, N-(4-Bromobenzyl)-5-(tert-butoxycarbonylamino)-1-phenyl-1H-pyrazole-4-carboxamide] gave a melting point of 175 to 176 °C. For the same molecule, in data set [1], the “MAC Kpn” value is given as 64 µg/mL and the “MIC/MAC Ratio Kpn” value stood at 8. Moreover, in data set [2], the “MAC Aba” value was found to be 64 µg/mL and the “MIC/MAC Ratio Aba” value stood at 8. Besides, the “MAC Eco” value in data set [3] is reported as “-”.

Take `N#Cc1c(C(=O)NCc2ccncc2)nn(-c2ccc(Cl)cc2)c1-n1cccc1` [Compound 35, 1-(4-Chlorophenyl)-4-cyano-N-(pyridin-4-ylmethyl)-5-(1H-pyrrol-1-yl)-1H-pyrazole-3-carboxamide]: the melting point was in the range of 85 to 88 °C.

`N#Cc1c(C(=O)NC23CC4CC(CC(C4)C2)C3)nn(-c2ccccc2)c1-n1cccc1` yielded a melting point of 227 to 229 °C.

In turn, `CCOC(=O)[C@H](C)NC(=O)c1cnn(-c2ccccc2)c1-n1cccc1` [Compound 12, Ethyl (S)-2-[[[1-Phenyl-5-(1H-pyrrol-1-yl)-1H-pyrazol-4-yl]carbonyl]amino]propanoate] returned a melting point of 90 to 92 °C.

The molecule `Cc1c(C(=O)NCc2ccc3c(c2)OCO3)nn(-c2ccc(Cl)c(Cl)c2)c1-n1c(C)ccc1C` [Compound 38, N-(Benzo[d][1,3]dioxol-5-ylmethyl)-1-(3,4-dichlorophenyl)-4-methyl-5-(2,5-dimethyl-1H-pyrrol-1-yl)-1H-pyrazole-3-carboxamide] displayed a melting point of 141 to 145 °C.

Consider `CN1CCN(C(=O)c2cnn(C)c2-n2cccc2)CC1` [Compound 3, (4-Methylpiperazin-1-yl)[1-methyl-5-(1H-pyrrol-1-yl)-1H-pyrazol-4-yl]methanone], for which the melting point was 109 to 111 °C.

Turning to `Cc1c(C(=O)Nc2nc(-c3ccc(F)cc3)cs2)nn(-c2ccc(Cl)c(Cl)c2)c1-n1cccc1` [Compound 37, 1-(3,4-Dichlorophenyl)-N-[4-(4-fluorophenyl)thiazol-2-yl]-4-methyl-5-(1H-pyrrol-1-yl)-1H-pyrazole-3-carboxamide], the melting point was in the range of 207 to 210 °C.

`CCOC(=O)[C@H](C)NC(=O)CNC(=O)c1cnn(-c2ccccc2)c1-n1cccc1` [Compound 18, N-[N-[[1-Phenyl-5-(1H-pyrrol-1-yl)-1H-pyrazol-4-yl]carbonyl]glycyl]-L-alanine Ethyl Ester] registered a melting point of 116 to 117 °C.

For the molecule `Cc1c(C(=O)N(CCO)Cc2ccccc2)nn(-c2ccc(Cl)cc2)c1-n1cccc1` [Compound 31, N-Benzyl-1-(4-chlorophenyl)-N-(2-hydroxyethyl)-4-methyl-5-(1H-pyrrol-1-yl)-1H-pyrazole-3-carboxamide], in data set [1], the “MAC Kpn” value is recorded as 16 µg/mL and the “MIC/MAC Ratio Kpn” value is listed as 32. For the same molecule, in data set [2], the “MAC Aba” value is on record as 32 µg/mL and the “MIC/MAC Ratio Aba” value is recorded as 16. Further, in data set [3], the “MAC Eco” value is 32 µg/mL and the “MIC/MAC Ratio Eco” value is on record as 16.

In turn, `CCOC(=O)c1ccc(NC(=O)c2nn(-c3ccc(Cl)cc3)c(-n3cccc3)c2C)cc1` [Compound 32, Ethyl 4-[[[1-(4-Chlorophenyl)-4-methyl-5-(1H-pyrrol-1-yl)-1H-pyrazol-3-yl]carbonyl]amino]benzoate] returned a melting point of 168 to 170 °C.

With `O=C(NC12CC3CC(CC(O)(C3)C1)C2)c1cc(-n2cccc2)n(-c2ccccc2)n1` [Compound 23, N-(Adamantan-3-ol-1-yl)-1-phenyl-5-(1H-pyrrol-1-yl)-1H-pyrazole-3-carboxamide], the melting point is 217 to 221 °C.

`Cc1c(C(=O)NCc2ccc3c(c2)OCO3)nn(-c2ccc(Cl)cc2)c1-n1cccc1` [Compound 29, N-(Benzo[d][1,3]dioxol-5-ylmethyl)-1-(4-chlorophenyl)-4-methyl-5-(1H-pyrrol-1-yl)-1H-pyrazole-3-carboxamide] had a melting point of 144 to 148 °C.

For orientation: melting point means the temperature, or range, at which the solid turns liquid.

Source of the values: publication PMC9774939, “Optimization of Pyrazole Compounds as Antibiotic Adjuvants Active against Colistin- and Carbapenem-Resistant Acinetobacter baumannii” (Antibiotics, 2022).
